From paper PMC11923649, “Novel C-2 Aromatic Heterocycle-Substituted Triterpenoids Inhibit Hedgehog Signaling in GLI1 Overexpression Cancer Cells” (ACS Omega, 2025)
Read-outs that look alike come from different tables or passages of the source.

Key:
[1] = test system: Hh signaling (Gli Reporter-NIH3T3, Gli-responsive FLuc); assay: Gli Reporter-NIH3T3 luciferase assay, mSHH or SAG induced; assay type: cell-based; conditions: mean ± SD, n=3
Experimental: To further validate the effect of new triterpenes on Hh signaling, we used the commercial reporter cell line NIH3T3–Gli reporter, which expresses the firefly luciferase (FLuc) gene under the control of a Gli-responsive element.
Gli Reporter-NIH3T3 (BPS Bioscience) cells were cultured in DMEM medium supplemented with 10% iron-supplemented bovine calf serum and under the selection pressure of Geneticin (500 μg/mL) at 37 °C in an atmosphere of 5% CO2 with 95% humidity. The Gli Reporter-NIH3T3 cell line expresses the firefly luciferase (FLuc) gene under the control of a Gli responsive element stably integrated into NIH3T3 cells. The cell line was validated through response to mSHH stimulation and the effect of commercially available Hh inhibitors (Cyclopamine). The assay was performed in 384-well white opaque microplates. Gli Reporter-NIH3T3 cells were transferred to Opti-MEM medium with a reduced content of 0.5% (v/v) iron-supplemented bovine calf serum, supplemented with a 1% solution of nonessential amino acids, 1 mmol/L sodium pyruvate, and 10 mmol/L HEPES, and seeded on the panel in a volume of 25 μL of cell suspension per well at a concentration of 2.5 × 10^5/mL. The following day, compounds were transferred at the concentration range of 16–0.25 μmol/L (dilution factor 2) and incubated for 2 h. Then, the mSHH ligand at concentrations of 0.25 and 0.5 μg/mL and SAG (a synthetic SMO agonist) at concentrations of 2 and 4 nmol/L were added to the wells. Controls representing DMSO-treated cells were also included at a concentration of 0.1% (v/v). Cells were incubated for another 24–30 h and then kept for 30 min at room temperature, and finally, 25 μL of Britelite plus reagent was added to each well. Plates were placed on a shaker to achieve complete cell lysis, and luminescence was measured after 3 min on an EnVision plate reader.

DAOY (medulloblastoma) = assay: MTS cytotoxicity assay, 72 h, DAOY; assay type: cell-based; conditions: Homo sapiens, read-out: IC50 medulloblastoma (DAYO)
Excerpt: (§1) Concerning nonsmall cell lung carcinoma (NSCLC)-derived cell lines, we selected two subtype groups with different expression levels of GLI1, based on a study by Yuan et al.[35] The first group includes cell lines where GLI1 is highly expressed (A549 and NCI-H522), while the second group includes low GLI1-expressing cell lines (HOP-62 and NCI-H322). It has been established that cell lines expressing high levels of GLI1 are relatively resistant to SMO antagonists due to a hyper-activated HH signaling pathway.[35] […] These interesting findings may indicate the potential of 11b to overcome hyper-activated HH signaling in particular NSCLC subsets. […] Lower activity was observed against medulloblastoma (DAYO) and glioblastoma (T98G)-derived cell lines with an IC50 above 20 μmol/L.
(§2) The human prostate tumor-derived cell line DU145 was obtained from ATCC (American Type Culture Collection) and cultured in RPMI 1640 (Roswell Park Memorial Institute) medium supplemented with 10% (v/v) fetal bovine serum (FBS). Human prostate tumor-derived LNCaP cells were obtained from ATCC and cultured in RPMI 1640 medium supplemented with 10% FBS. […] Finally, the absorbance at 490 nm was measured using an EnVision multifunctional modular reader (PerkinElmer). The IC50 value was determined using Dotmatics software.

T98G (glioblastoma) = assay: MTS cytotoxicity assay, 72 h, T98G; assay type: cell-based; conditions: Homo sapiens
Excerpt: as §1, §2

HOP-62 (NSCLC, low GLI1) = assay: MTS cytotoxicity assay, 72 h, HOP-62; assay type: cell-based, human; conditions: compared with A549
Excerpt: as §1, §2

[2] = test system: NCI-H322 (NSCLC, low GLI1); assay: MTS cytotoxicity assay, 72 h, NCI-H322; assay type: cell-based, human; conditions: compared with A549
Excerpt: as §1, §2

[3] = SAG (SMO agonist) 2 nM after 2 h preincubation, read-out: IC50 SAG stimulation 2 nM
[4] = SAG (SMO agonist) 4 nM after 2 h preincubation, read-out: IC50 SAG stimulation 4 nM
[5] = mSHH 0.25 μg/mL after 2 h preincubation, read-out: IC50 mSHH stimulation 0.25 (μg/mL)
[6] = mSHH 0.5 μg/mL after 2 h preincubation, read-out: IC50 mSHH stimulation 0.5 (μg/mL)

Compound | IC50 [1, 3] [µM] | IC50 [1, 4] [µM] | IC50 [1, 5] [µM] | IC50 [1, 6] [µM] | IC50 (DAOY (medulloblastoma)) [µM] | IC50 (T98G (glioblastoma)) [µM] | IC50 of HOP-62 relative to A549 (HOP-62 (NSCLC, low GLI1)) | IC50 of NCI-H322 relative to A549 [2]
C=C(C)[C@@H]1CC[C@]2(C(=O)O)CC[C@]3(C)C(CCC4[C@@]5(C)C=C(c6ccco6)C(=O)C(C)(C)C5CC[C@]43C)C12 (stereo partly drawn) [Compound 11a, 2-(Furan-2-yl)-3-oxolupa-1,20(29)-dien-28-oic acid] | 4.5 ± 0.6 | 3.8 ± 0.4 | 3.5 ± 0.5 | 1.9 ± 0.2 |  |  |  | 
C=C(C)[C@@H]1CC[C@]2(C(=O)O)CC[C@]3(C)C(CCC4[C@@]5(C)C=C(c6ccoc6)C(=O)C(C)(C)C5CC[C@]43C)C12 (stereo partly drawn) [Compound 11b, 2-(Furan-3-yl)-3-oxolupa-1,20(29)-dien-28-oic acid] | 3.5 ± 0.2 | 4.1 ± 0.4 | 3.2 ± 0.3 | 2.4 ± 0.3 | > 20 | > 20 | almost two times higher | almost two times higher
